Values quoted from earlier work, collected in US11129842B2, “Methods and compositions for treating diseases related to imbalance of essential fatty acids” (BODYBIO INC., priority 2018, dated 2021).

Experiments:
CB1 cannabinoid receptor = CB1 cannabinoid receptor (Homo sapiens, UniProt P21554)
CB2 receptor = CB2 receptor (Homo sapiens, UniProt P34972)
Sequence of CB2 receptor (P34972 whole entry): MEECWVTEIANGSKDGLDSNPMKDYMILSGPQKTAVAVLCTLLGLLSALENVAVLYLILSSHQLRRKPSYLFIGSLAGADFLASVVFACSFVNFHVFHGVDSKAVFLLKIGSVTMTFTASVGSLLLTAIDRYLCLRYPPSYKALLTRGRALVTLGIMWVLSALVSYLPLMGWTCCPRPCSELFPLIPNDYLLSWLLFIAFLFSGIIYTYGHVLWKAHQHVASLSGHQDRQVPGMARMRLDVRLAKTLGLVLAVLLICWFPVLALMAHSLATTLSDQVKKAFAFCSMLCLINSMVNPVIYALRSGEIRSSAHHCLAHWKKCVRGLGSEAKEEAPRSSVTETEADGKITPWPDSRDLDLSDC

Sequence of CB1 cannabinoid receptor (P21554 whole entry): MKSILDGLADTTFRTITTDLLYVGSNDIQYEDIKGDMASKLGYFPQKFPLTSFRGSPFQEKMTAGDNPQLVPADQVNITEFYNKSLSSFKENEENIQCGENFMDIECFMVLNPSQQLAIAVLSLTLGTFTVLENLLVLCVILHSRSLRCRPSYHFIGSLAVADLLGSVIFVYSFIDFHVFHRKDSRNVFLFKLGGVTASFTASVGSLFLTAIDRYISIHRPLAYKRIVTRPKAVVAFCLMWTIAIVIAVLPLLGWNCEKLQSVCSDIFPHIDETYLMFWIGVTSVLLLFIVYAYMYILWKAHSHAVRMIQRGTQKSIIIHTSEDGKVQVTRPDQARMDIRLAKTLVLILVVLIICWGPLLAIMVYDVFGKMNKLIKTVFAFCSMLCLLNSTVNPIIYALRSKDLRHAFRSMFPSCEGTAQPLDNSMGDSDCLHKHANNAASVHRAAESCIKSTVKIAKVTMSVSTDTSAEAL

CCCCC/C=C\C/C=C\C/C=C\C/C=C\CCCCOC(CO)CO [Noladin ether, 2-arachidonyl glyceryl ether]
Ki (CB1 cannabinoid receptor): 21.2 nM
binding to the CB2 receptor (CB2 receptor): only weakly
